Reference: the NIST ThermoML archive (doi:10.1016/j.jct.2018.02.022)

Test: xn = mol fraction of the nth substance listed
Settings: 92.3 kPa, Liquid; for viscosity: Concentric cylinders viscometry; for speed of sound: Frequency=3 MHz, Single path-length method; for mass density: Vibrating tube method

OCC(O)CO [glycerol] + O
Settings	mass density [kg/m3]	speed of sound [m/s]	viscosity [mPa·s]
293.15 K, x1 = 0.011	1010.85	1505.6	–
293.15 K, x1 = 0.021	1021.71	1526.4	–
293.15 K, x1 = 0.0302	1031.17	1544.8	–
293.15 K, x1 = 0.0398	1040.58	1563.4	–
293.15 K, x1 = 0.0546	1054.09	1590.1	–
293.15 K, x1 = 0.0651	1062.84	1608.2	–
293.15 K, x1 = 0.0721	1068.61	1619.8	–
293.15 K, x1 = 0.0793	1073.97	1630.9	–
293.15 K, x1 = 0.0898	1081.8	1646.9	–
293.15 K, x1 = 0.0998	1088.82	1661.3	3.277
293.15 K, x1 = 0.1198	1101.67	1687.5	–
293.15 K, x1 = 0.1549	1121.66	1727.7	5.662
293.15 K, x1 = 0.2024	1143.7	1770.2	–
293.15 K, x1 = 0.2534	1162.81	1804.7	13.67
293.15 K, x1 = 0.2959	1176	1826.9	19.73
293.15 K, x1 = 0.3504	1190.05	1846.7	30.2
293.15 K, x1 = 0.4006	1200.88	1863.9	45.08
293.15 K, x1 = 0.4477	1209.47	1874.9	63.42
293.15 K, x1 = 0.4983	1217.48	1884.4	90.21
293.15 K, x1 = 0.5471	1224.33	1891.7	124.25
293.15 K, x1 = 0.6046	1231.03	1898.3	182.07
293.15 K, x1 = 0.6469	1235.49	1902.4	234.23
293.15 K, x1 = 0.7006	1240.52	1906.8	322.03
293.15 K, x1 = 0.7465	1244.44	1910.2	419.77
293.15 K, x1 = 0.7942	1248.13	1913.5	535.66
293.15 K, x1 = 0.8497	1251.95	1916.8	705.87
293.15 K, x1 = 0.8993	1254.99	1919.1	897.16
293.15 K, x1 = 0.9196	1256.26	1920.6	–
293.15 K, x1 = 0.9322	1256.97	1921.3	–
293.15 K, x1 = 0.9462	1257.78	1922.1	1125.1
293.15 K, x1 = 0.9562	1258.3	1922.6	–
293.15 K, x1 = 0.9855	1259.96	1924.3	–
293.15 K, x1 = 1	1260.73	1925.5	1408.4
298.15 K, x1 = 0.011	1009.54	1518.5	–
298.15 K, x1 = 0.021	1020.28	1538	–
298.15 K, x1 = 0.0302	1029.64	1555.4	–
298.15 K, x1 = 0.0398	1038.94	1572.8	–
298.15 K, x1 = 0.0546	1052.3	1598	–
298.15 K, x1 = 0.0651	1060.94	1615	–
298.15 K, x1 = 0.0721	1066.65	1625.8	–
298.15 K, x1 = 0.0793	1071.95	1636.2	–
298.15 K, x1 = 0.0898	1079.69	1651.3	–
298.15 K, x1 = 0.0998	1086.64	1664.9	2.631
298.15 K, x1 = 0.1198	1099.36	1689.5	–
298.15 K, x1 = 0.1549	1119.16	1727.3	4.416
298.15 K, x1 = 0.2024	1141.01	1767.4	–
298.15 K, x1 = 0.2534	1159.99	1800	10.4
298.15 K, x1 = 0.2959	1173.1	1821	14.91
298.15 K, x1 = 0.3504	1187.09	1841.6	22.91
298.15 K, x1 = 0.4006	1197.86	1856.1	33.73
298.15 K, x1 = 0.4477	1206.42	1866.5	46.86
298.15 K, x1 = 0.4983	1214.4	1875.4	65.72
298.15 K, x1 = 0.5471	1221.23	1882.4	89.21
298.15 K, x1 = 0.6046	1227.93	1888.6	126.31
298.15 K, x1 = 0.6469	1232.4	1892.3	163.54
298.15 K, x1 = 0.7006	1237.44	1896.3	220.14
298.15 K, x1 = 0.7465	1241.37	1899.4	283.91
298.15 K, x1 = 0.7942	1245.06	1902.3	358.24
298.15 K, x1 = 0.8497	1248.81	1905.2	463.79
298.15 K, x1 = 0.8993	1251.84	1907	584.38
298.15 K, x1 = 0.9196	1253.1	1908.2	–
298.15 K, x1 = 0.9322	1253.82	1908.7	–
298.15 K, x1 = 0.9462	1254.68	1909.8	725.78
298.15 K, x1 = 0.9562	1255.2	1909.8	–
298.15 K, x1 = 0.9855	1256.87	1911	–
298.15 K, x1 = 1	1257.65	1911.9	900.44
303.15 K, x1 = 0.011	1008.02	1529.5	–
303.15 K, x1 = 0.021	1018.65	1548	–
303.15 K, x1 = 0.0302	1027.91	1564.3	–
303.15 K, x1 = 0.0398	1037.12	1580.8	–
303.15 K, x1 = 0.0546	1050.34	1604.4	–
303.15 K, x1 = 0.0651	1058.89	1620.4	–
303.15 K, x1 = 0.0721	1064.55	1630.6	–
303.15 K, x1 = 0.0793	1069.8	1640.5	–
303.15 K, x1 = 0.0898	1077.46	1654.6	–
303.15 K, x1 = 0.0998	1084.34	1667.4	2.405
303.15 K, x1 = 0.1198	1096.94	1690.6	–
303.15 K, x1 = 0.1549	1116.57	1726.2	3.932
303.15 K, x1 = 0.2024	1138.25	1764	–
303.15 K, x1 = 0.2534	1157.11	1794.9	8.807
303.15 K, x1 = 0.2959	1170.15	1814.7	12.34
303.15 K, x1 = 0.3504	1184.07	1834.3	18.45
303.15 K, x1 = 0.4006	1194.81	1848	26.45
303.15 K, x1 = 0.4477	1203.34	1857.9	36.01
303.15 K, x1 = 0.4983	1211.29	1866.4	49.18
303.15 K, x1 = 0.5471	1218.12	1872.9	65.39
303.15 K, x1 = 0.6046	1224.8	1878.8	91.76
303.15 K, x1 = 0.6469	1229.27	1882.3	116.57
303.15 K, x1 = 0.7006	1234.31	1886	154.03
303.15 K, x1 = 0.7465	1238.26	1888.8	196.75
303.15 K, x1 = 0.7942	1241.97	1891.5	245.24
303.15 K, x1 = 0.8497	1245.72	1894.1	314.35
303.15 K, x1 = 0.8993	1248.75	1895.6	391.29
303.15 K, x1 = 0.9196	1250	1896.7	–
303.15 K, x1 = 0.9322	1250.72	1896.9	–
303.15 K, x1 = 0.9462	1251.51	1897.2	477.66
303.15 K, x1 = 0.9562	1252.03	1897.8	–
303.15 K, x1 = 0.9855	1253.69	1898.9	–
303.15 K, x1 = 1	1254.48	1899.6	593.09
308.15 K, x1 = 0.011	1006.3	1538.8	–
308.15 K, x1 = 0.021	1016.83	1556.4	–
308.15 K, x1 = 0.0302	1026.01	1571.8	–
308.15 K, x1 = 0.0398	1035.13	1587.3	–
308.15 K, x1 = 0.0546	1048.23	1609.6	–
308.15 K, x1 = 0.0651	1056.7	1624.6	–
308.15 K, x1 = 0.0721	1062.31	1634.3	–
308.15 K, x1 = 0.0793	1067.51	1643.6	–
308.15 K, x1 = 0.0898	1075.13	1656.9	–
308.15 K, x1 = 0.0998	1081.93	1668.9	2.102
308.15 K, x1 = 0.1198	1094.42	1690.8	–
308.15 K, x1 = 0.1549	1113.89	1724.3	3.385
308.15 K, x1 = 0.2024	1135.43	1760.1	–
308.15 K, x1 = 0.2534	1154.17	1789.3	7.44
308.15 K, x1 = 0.2959	1167.15	1808.1	10.25
308.15 K, x1 = 0.3504	1181.02	1826.7	14.92
308.15 K, x1 = 0.4006	1191.72	1839.7	20.87
308.15 K, x1 = 0.4477	1200.23	1849	27.91
308.15 K, x1 = 0.4983	1208.14	1857.6	37.43
308.15 K, x1 = 0.5471	1214.97	1863.4	49.12
308.15 K, x1 = 0.6046	1221.64	1869	65.97
308.15 K, x1 = 0.6469	1226.11	1872.2	85.3
308.15 K, x1 = 0.7006	1231.15	1875.7	111.01
308.15 K, x1 = 0.7465	1235.11	1878.4	140.28
308.15 K, x1 = 0.7942	1238.83	1880.9	172.49
308.15 K, x1 = 0.8497	1242.6	1883.6	218.85
308.15 K, x1 = 0.8993	1245.64	1884.6	270.27
308.15 K, x1 = 0.9196	1246.89	1885.5	–
308.15 K, x1 = 0.9322	1247.62	1885.8	–
308.15 K, x1 = 0.9462	1248.4	1886.3	326.69
308.15 K, x1 = 0.9562	1248.93	1886.6	–
308.15 K, x1 = 0.9855	1250.59	1887.5	–
308.15 K, x1 = 1	1251.38	1888.1	401.76
